Test results: publication PMC9511777, “Novel lipid-coated mesoporous silica nanoparticles loaded with thymoquinone formulation to increase its bioavailability in the brain and organs of Wistar rats” (BMC Pharmacology & Toxicology, 2022)
Read-outs that look alike come from different tables or passages of the source.

How the values were obtained:
[1] = Distribution of TQ in brain areas, liver and kidney (HPLC); type: in vivo, Wistar rats; details: male, Wistar, rat, oral, 60 mg/kg TQ, read-out: TQ distribution, Mean ± SEM
Experimental: Twenty-eight male Wistar rats with an average weight of 110±10 gm were allocated into four random groups (seven rats/group). Animals were kept in fixed housing circumstances (12 h light/dark cycles) and temperature (25 °C) for three days to acclimatize. The Institutional Animal Ethics Committee approved the protocol for the in vivo study (CU-I-F-28-21).
(§1) The four groups received oral dose day by day for 14 days as follows: The first group: the negative control group, received 1:9; DMSO: Saline. The second group: the free TQ group, received a 60 mg/kg free TQ (3). The third group: The MSNs group received a 60 mg/kg MSNs dose. The fourth group: the LB-MSNs group, received a dose of 60 mg/kg MSNs loaded with TQ and coated with lipids. On day 14, rats were decapitated, and rat brains, liver, and kidneys were dissected for histopathological examination and oxidative stress measurements. The duration time of our experiment and the TQ doses were determined following Sheikhbahaei et al. (2016). 's work.
(§2) On the 14th day of the experiment, all the experimental groups were sacrificed by decapitation. The brains of each animal were taken away after they were removed and put in an ice-cold Petri dish. The brain was sectioned into different regions (hippocampus, cortex, hypothalamus, thalamus, medulla, midbrain, cerebellum, and striatum). Each brain region was weighed and frozen until used in further measurements. Heidolph DIAX 900 was used to homogenize the brain sections weighed in 4 ml of ice-cold PBS (50 mM, pH 7.4). Then, for 15 minutes, the homogenates were separated using a high-speed cooling centrifuge. The centrifuge was set to 8000 RPM and 4°C (VS-18000 M small size, high speed, refrigerated centrifuge, Korea). The pure supernatant was collected and stored at -20°C for further analysis.
TQ was chromatographically identified at room temperature 25 °C. The mobile phase was 50: 30: **20 v/v/v methanol, acetonitrile, and potassium dihydrogen phosphate buffer (20 mM, pH 4.5), isocratically injected at a flow rate of 1 ml/min using the HPLC apparatus's C18 column (25 cm4.6 mm) (YL 9100 HPLC, USA).

Nitric oxide (NO) levels = Nitric oxide (NO) levels in tissues (Griess reaction); type: in vivo, Wistar rats; details: all the tested organs; oral 60 mg/kg, 14 days
Experimental: as §1
(§3) On the 14th day of the experiment, all the experimental groups were sacrificed by decapitation. […]
The nitric oxide assay was performed according to the Griess reaction method using biodiagnostic kit No. 25 33, Egypt. […] Absorption was measured using a spectrophotometer at […] (Jenway UV-6420; Barloworld Scientific, Essex, UK). NO levels were quantified as nitrite using the Griess reagent, according to Moshage et al..
(§4) We used The Statistical Package for Social Sciences (SPSS) software (version 19) to analyze the data. The mean and standard error of the results were calculated. […] The percentage difference, which reflects the percent change in value compared to the control, was also assessed. %Difference%D=treatedvalue-controlvalue/controlvalue×100%

[2] = test system: Lipid peroxidation (MDA) levels; assay: Lipid peroxidation (MDA) levels in tissues; type: in vivo, Wistar rats; details: oral 60 mg/kg, 14 days
Experimental: as §1, §2
MDA was determined as a marker of lipid peroxidation using a method developed by Begona Ruiz-Larrea et al., which entailed detecting the thiobarbituric acid-reactive molecules. […] A spectrophotometer was used to measure the absorbance of the generated compound at 532 nm (Jenway UV-6420; Barloworld Scientific, Essex, UK).
as §4

[3] = test system: Reduced glutathione (GSH) levels; assay: Reduced glutathione (GSH) levels in tissues (Ellman's method); type: in vivo, Wistar rats; details: oral 60 mg/kg, 14 days
Experimental: as §1, §3
According to Ellman's method, the determination of Reduced Glutathione concentration (GSH) required using Biodiagnostic kit No. GR 25 11, Egypt. Ellman's method measured reduced glutathione levels, as the sulfhydryl group of […] lowers Ellman's reagent and produces 2-Nitro-smercaptobenzoic acid. The yellow-colored nitro-mercaptobenzoic acid was detected at 412 nm using a spectrophotometer (Jenway UV-6420; Barloworld Scientific, Essex, UK).
We used The Statistical Package for Social Sciences (SPSS) software (version 19) to analyze the data. The mean and standard error of the results were calculated. […]

Catalase activity = Catalase activity in tissues (Aebi's protocol); type: in vivo, Wistar rats; details: oral 60 mg/kg, 14 days
Experimental: as §1, §3
The catalase activity was determined according to Aebi’s protocol (spectrophotometry) using Biodiagnostic Kit No. CA 25 1, Egypt. […] The chromophore's absorbance at 510 nm is measured using a spectrophotometer (Jenway UV-6420; Barloworld Scientific, Essex, UK).
as §4

Wistar rats = assay: Histopathological examination of the kidney, liver, and different brain areas (H & E); type: in vivo; details: H & E x400, oral 60 mg/kg, 14 days
Experimental: as §1
Each group's brain, liver, and kidney were fixed in a formalin buffered solution (10%) for twenty-four hours. Fixed specimens were rinsed with tap water before dehydrating with methyl, ethyl, and absolute dilutions. Specimens were cleaned in xylene and embedded in paraffin wax for 24 hours in a 56°C hot air oven. Microtome blocks of Paraffin bees wax tissue were sectioned at 8 microns on a slide, collected on glass slides, and removed paraffin stained with hematoxylin and eosin (H & E) stains. A light microscope was used to examine the slides (Zeiss, Germany).

NO and MDA metabolites = test system: NO and MDA metabolites; set-up: method as in PMID 22309035; details: rat brain; 2, 5, or 10 mg/kg doses; cited from earlier work

- concentration at 14 days ([1]; Cerebellum): 48 ± 18 ng/g
- concentration at 14 days ([1]; Cortex): 25 ± 4 ng/g
- concentration at 14 days ([1]; Hippocampus): 2 ± 0.3 ng/g
- concentration at 14 days ([1]; Hypothalamus): 10 ± 0.3 ng/g
- concentration at 14 days ([1]; Kidney): 112 ± 19 ng/g
- concentration at 14 days ([1]; Liver): 201 ± 24 ng/g
- concentration at 14 days ([1]; Medulla): 6 ± 1 ng/g
- concentration at 14 days ([1]; Midbrain): 7 ± 1 ng/g
- concentration at 14 days ([1]; Striatum): 13 ± 1 ng/g
- concentration at 14 days ([1]; Thalamus): 4 ± 1 ng/g
- catalase activity change compared with negative control group (Catalase activity; all investigated areas except cerebellum, brain, kidney, hippocampus): no significant differences
- renal histopathological alterations (Wistar rats): mild histopathological alterations
SMILES: CC1=CC(=O)C(C(C)C)=CC1=O [TQ, 2-isopropyl-5-methyl-1,4-benzoquinone]
- NO level change compared with negative control group (Nitric oxide (NO) levels): nonsignificant changes
- MDA concentration change compared with control ([2]; all tested areas except the medulla): nonsignificant changes
- MDA level, significant increase compared with control ([2]; liver): 67.01%
- MDA level, significant decrease compared with control ([2]; medulla): 60.95%
- GSH level change compared with negative control group ([3]; all investigated areas except the cerebellum): no significant changes
- GSH level, significant increase compared with control ([3]; cerebellum): 181.98%
- catalase activity, significant difference compared with negative control (direction not given) (Catalase activity; cerebellum): 55.4%
- NO and MDA metabolites in the hippocampus (NO and MDA metabolites): decreased
